# Data from patent US12679807B2 (MERCK SHARP & DOHME LLC, priority 2020, dated 2026).
# Target: T1, GCS enzyme contained within Golgi preparations isolated from human A375 malignant melanoma skin cells (Homo sapiens, UniProt Q16739)
# T1 construct: endogenous levels of GCS enzyme contained within Golgi preparations isolated from human A375 malignant melanoma skin cells; endogenous in cells; host or cells: A375 human malignant melanoma cells (crude Golgi preparation)
# T1 sequence (Q16739 1-394): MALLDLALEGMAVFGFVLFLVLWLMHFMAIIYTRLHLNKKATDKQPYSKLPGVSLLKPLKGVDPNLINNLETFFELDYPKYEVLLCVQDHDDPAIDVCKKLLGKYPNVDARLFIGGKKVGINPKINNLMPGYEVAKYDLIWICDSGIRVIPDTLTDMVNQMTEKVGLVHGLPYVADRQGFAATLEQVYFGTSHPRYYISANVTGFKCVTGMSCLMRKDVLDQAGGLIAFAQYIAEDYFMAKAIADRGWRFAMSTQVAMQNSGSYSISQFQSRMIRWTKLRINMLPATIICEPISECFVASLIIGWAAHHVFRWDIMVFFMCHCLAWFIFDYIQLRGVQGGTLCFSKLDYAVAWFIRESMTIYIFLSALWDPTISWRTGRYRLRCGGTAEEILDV
# Assay: UDP-Glo glucosylceramide synthase biochemical assay
# Settings: crude Golgi preparation from A375 cells; C6 ceramide and UDP-glucose substrates; 20 h incubation at room temperature; UDP detected by luminescence
# Source text: UDP-Glo™ Glucosylceramide Synthase Biochemical Assay
# A UDP-Glo™ glucosylceramide synthase biochemical assay was utilized to evaluate the effect of test compounds on the activity of endogenous levels of GCS enzyme contained within Golgi preparations isolated from human A375 malignant melanoma skin cells. The UDP-Glo™ glucosylceramide synthase assay uses UDP-Glucose as a nucleotide-glycosyl donor and ceramide as substrate acceptor molecules. In the reaction, glucosylceramide synthase (GCS) transfers glucose from UDP-Glucose to ceramide. Glucosylceramide and UDP are released as products.
# Using Promega's UDP-Glo™ Glycosyltransferase assay kit (Promega Corporation, Madison, WI, USA (Promega)), GCS activity was indirectly measured by detecting the amount of UDP produced. An aliquot of GCS enzyme (1.5 μg crude golgi preparation, total protein) and titrated test compound were aliquoted to each well and incubated for 30 minutes at room temperature. […] An equivalent volume of substrate mixture was then added to each well. Following a 20 h incubation at room temperature to allow for GCS turnover of substrate, an equal volume of UDP detection reagent (Promega) was added to each well and incubated for an additional 75 minutes at room temperature to simultaneously convert the accumulated UDP product into ATP and generate light in a luciferase reaction. The generated light was detected using a luminometer. […] luminescence values (RLUs) were normalized to mean “min” and “max” effects, as determined on each plate. […] Values for % Emax and EC50 were determined by best-fitting the normalized data to a curve in Activity Base along a four-parameter logistic nonlinear regression (4PL) model (based on the Levenberg-Marquardt algorithm and defined by the equation below):
# [formula] where: n is 4 PMin (bottom of the curve); m is 4 PMax (top of the curve); i is IP (inflection point of curve); and p is slope. See Levenberg, K., “A Method for the Solution of Certain Problems in Least Squares”, Quart. Appl. Math. […] Math.
row,Structure (SMILES),EC50 [nM]
1,"CC(C)(O)C(C1CC1)N1Cc2cccc(C#Cc3ccnc4c3CCC4)c2C1=O (single isomer, unassigned) [Compound 172, (R or S)-2-(1-Cyclopropyl-2-hydroxy-2-methylpropyl)-7-((6,7-dihydro-5H-cyclopenta[b]pyridin-4-yl)ethynyl)isoindolin-1-one]",9.7
2,"CC(C)(O)C(C1CC1)N1Cc2cccc(CCc3ccnc4c3CCC4)c2C1=O (single isomer, unassigned) [Compound 173, (R or S)-2-(1-Cyclopropyl-2-hydroxy-2-methylpropyl)-7-(2-(6,7-dihydro-5H-cyclopenta[b]pyridin-4-yl)ethyl)isoindolin-1-one]",120
3,"CC(C)(O)C(C1CC1)N1Cc2cccc(/C=C/c3c(Cl)cnc4c3OCO4)c2C1=O (single isomer, unassigned) [Compound 174, (R or S)-(E)-7-(2-(6-Chloro-[1,3]dioxolo[4,5-b]pyridin-7-yl)vinyl)-2-(1-cyclopropyl-2-hydroxy-2-methylpropyl)isoindolin-1-one]",6.8
4,"Cc1cnc2c(c1/C=C/c1cccc3c1C(=O)N(C(C1CC1)C(C)(C)O)C3)OCO2 (single isomer, unassigned) [Compound 175, (R or S)-(E)-2-(1-Cyclopropyl-2-hydroxy-2-methylpropyl)-7-(2-(6-methyl-[1,3]dioxolo[4,5-b]pyridin-7-yl)vinyl)isoindolin-1-one]",27
5,"Cc1cnc2c(c1CCc1cccc3c1C(=O)N(C(C1CC1)C(C)(C)O)C3)OCO2 (single isomer, unassigned) [Compound 176, (R or S)-2-(1-Cyclopropyl-2-hydroxy-2-methylpropyl)-7-(2-(6-methyl-[1,3]dioxolo[4,5-b]pyridin-7-yl)ethyl)isoindolin-1-one]",14
6,"CC(C)(O)C(C1CC1)N1Cc2cccc(COc3c(Cl)cnc4c3OCO4)c2C1=O (single isomer, unassigned) [Compound 177, (R or S)-7-(((6-chloro-[1,3]dioxolo[4,5-b]pyridin-7-yl)oxy)methyl)-2-(1-cyclopropyl-2-hydroxy-2-methylpropyl)isoindolin-1-one]",28
7,"Cc1cnc2c(c1NCc1cccc3c1C(=O)N(C(C1CC1)C(C)(C)O)C3)OCO2 (single isomer, unassigned) [Compound 178, (R or S)-2-(1-Cyclopropyl-2-hydroxy-2-methylpropyl)-7-(((6-methyl-[1,3]dioxolo[4,5-b]pyridin-7-yl)amino)methyl)isoindolin-1-one]",21
8,"CC(C)(O)C(C1CC1)N1Cc2cccc(OCc3c(Cl)cnc4c3OCO4)c2C1=O (single isomer, unassigned) [Compound 179, (R or S)-7-((6-chloro-[1,3]dioxolo[4,5-b]pyridin-7-yl)methoxy)-2-(1-cyclopropyl-2-hydroxy-2-methylpropyl)isoindolin-1-one]",16
9,"CC(C)(O)C(C1CC1)N1Cc2cccc(OCc3ccnc4c3CCC4)c2C1=O (single isomer, unassigned) [Compound 180, (R or S)-2-(1-cyclopropyl-2-hydroxy-2-methylpropyl)-7-((6,7-dihydro-5H-cyclopenta[b]pyridin-4-yl)methoxy)isoindolin-1-one]",35
10,"Cc1cnc2c(c1COc1cccc3c1C(=O)N(C(C1CC1)C(C)(C)O)C3)OCO2 (single isomer, unassigned) [Compound 181]",54
11,"Cc1nnc(-c2cccc(-c3cccc4c3C(=O)N([C@H](C3CC3)C(C)(C)O)C4)c2)o1 [Compound 13, (R)-2-(1-cyclopropyl-2-hydroxy-2-methylpropyl)-7-(3-(5-methyl-1,3,4-oxadiazol-2-yl)phenyl)isoindolin-1-one]",260
